Reference: patent US9353090B2, “Heterocyclic carboxylic acids as activators of soluble guanylate cyclase” (Boehringer Ingelheim International GmbH, priority 2014, dated 2016)
In brackets after ≈: the same amount, converted by molar mass.

Tests used:
[1] = target: human soluble guanylate cyclase alpha 1 and beta 1 subunits (sGC) (Homo sapiens (Human), UniProt Q02108+Q02153); experiment: sGC cellular activator assay (cGMP, HTRF), in the presence and absence of 50% human serum; format: cell-based; conditions: CHO cells stably expressing human sGC alpha 1/beta 1, preincubated with 40 microM ODQ; cGMP by HTRF; Table 2 does not state whether with or without 50% human serum
Chain of human soluble guanylate cyclase alpha 1 and beta 1 subunits (sGC) (Q02108 whole entry partner): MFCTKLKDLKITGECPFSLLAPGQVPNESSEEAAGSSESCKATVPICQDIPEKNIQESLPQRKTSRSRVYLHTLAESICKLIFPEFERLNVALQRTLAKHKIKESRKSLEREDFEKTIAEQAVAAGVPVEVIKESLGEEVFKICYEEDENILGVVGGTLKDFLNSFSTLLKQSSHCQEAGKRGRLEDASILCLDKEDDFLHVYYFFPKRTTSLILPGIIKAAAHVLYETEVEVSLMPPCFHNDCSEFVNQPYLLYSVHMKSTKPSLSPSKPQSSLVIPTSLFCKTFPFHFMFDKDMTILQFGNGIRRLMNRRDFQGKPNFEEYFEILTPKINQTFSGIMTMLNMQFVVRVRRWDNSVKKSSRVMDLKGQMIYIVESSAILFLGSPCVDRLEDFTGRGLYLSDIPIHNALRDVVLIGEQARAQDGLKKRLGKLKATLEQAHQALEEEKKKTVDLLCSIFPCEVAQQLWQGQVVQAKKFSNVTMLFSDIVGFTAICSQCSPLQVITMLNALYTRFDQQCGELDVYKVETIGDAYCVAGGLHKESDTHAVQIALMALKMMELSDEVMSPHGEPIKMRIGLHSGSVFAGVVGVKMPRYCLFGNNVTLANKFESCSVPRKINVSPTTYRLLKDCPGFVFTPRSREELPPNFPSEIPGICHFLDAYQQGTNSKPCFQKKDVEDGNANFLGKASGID
Chain of human soluble guanylate cyclase alpha 1 and beta 1 subunits (sGC) (Q02153 whole entry): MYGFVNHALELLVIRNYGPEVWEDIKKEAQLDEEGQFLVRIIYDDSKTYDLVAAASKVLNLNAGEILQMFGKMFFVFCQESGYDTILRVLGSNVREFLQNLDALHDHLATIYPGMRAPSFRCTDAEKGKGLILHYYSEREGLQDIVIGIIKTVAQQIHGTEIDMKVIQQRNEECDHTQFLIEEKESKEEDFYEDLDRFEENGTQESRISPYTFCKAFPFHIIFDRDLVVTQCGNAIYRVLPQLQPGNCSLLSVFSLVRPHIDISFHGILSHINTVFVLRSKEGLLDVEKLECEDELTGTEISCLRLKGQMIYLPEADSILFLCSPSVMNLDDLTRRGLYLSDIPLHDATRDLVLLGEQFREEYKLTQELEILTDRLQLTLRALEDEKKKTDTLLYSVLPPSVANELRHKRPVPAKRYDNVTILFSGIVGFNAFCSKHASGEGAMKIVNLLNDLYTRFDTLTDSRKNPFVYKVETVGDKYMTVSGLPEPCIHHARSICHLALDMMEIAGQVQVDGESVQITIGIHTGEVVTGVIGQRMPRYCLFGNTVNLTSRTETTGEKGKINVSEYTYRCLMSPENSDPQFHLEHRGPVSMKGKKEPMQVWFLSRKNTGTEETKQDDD
Outline: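 First, CHO-sGC (human α1β1) cells get 1 h ODQ at 40 microM with IBMX and 0.1% BSA. Finally, cGMP is quantified by HTRF and EC50 computed.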

[2] = Human liver microsome (HLM) metabolic stability assay; format: in vitro ADME; conditions: human liver microsomes
Outline: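 Remaining parent measured by LC/MS/MS (ESI, MRM) at 5, 15, 30 and 60 min relative to 0 min. Incubation: 1 uM compound, HLMs, NADPH-started, 37° C., 60 min total, single replicate. Slope of ln(% remaining) gives t1/2 = 0.693/slope, then CLint, CLh and % Qh.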

[3] = 24 h
Procedure: (§1) Solubility is measured by the following method.
(§2) 100 uL, 10 mM DMSO stock solution of each compound is prepared in a 96 well plate format. The experiment is done in single determination at 3 pH values (2.2, 4.5 and 6.8). For each pH and one reference, 40 uL of each compound is needed.
(§3) McIlvaine pH 2.2: To 2.076 g citric acid monohydrate and 0.043 g Na2HPO4×2H2O add 100 ml deionized water
(§4) McIlvaine pH 4.5: To 1.166 g citric acid monohydrate and 1.585 g Na2HPO4×2H2O add 100 ml deionized water
(§5) McIlvaine pH 6.8: To 0.476 g citric acid monohydrate and 2.753 g Na2HPO4×2H2O add 100 ml deionized water
(§6) With a suitable liquid handling device (Multipette® or a liquid handler) 390 uL of each buffer solution and 10 uL of compound is added to each well of a 96 deep well plate. The plates are covered firmly and shaken for 24 h on an over head shaker (at 54 RPM) at room temperature. The DMSO content in the final buffer is 2.5% v/v.
(§7) After 24 h the plates are centrifuged to remove droplets on the lid before opening (for ˜5 min at 2500 RPM).
(§8) The filtration is done under vacuum with Millipore 96 well filter plate. Filtrate is collected in a deep well plate and transferred to a suitable plate for UPLC analysis.
(§9) The reference plate is prepared by adding 10 uL of compound to 390 uL of 50:50 acetonitrile/water in a 96 deep well plate and transferred to a suitable plate for UPLC analysis. Wells are checked visually for precipitation, any presence noted under comments in reported results.
(§10) The samples are measured with UPLC-UV using the chromatographic method described below.
(§11) Waters Empower®2 software is used for generating Sample Sets (according to the plate layout), Sample Set Methods and Instrument Methods.
(§12) One Sample Set comprises the methods for three 96 well plates (one reference plate and two sample plates, and includes one Sample Set Method and one Instrument Method).
Data Processing and Analysis
(§13) The UV chromatograms collected at 254 nm are integrated and processed.
(§14) It is assumed that the compound is completely dissolved in the reference solution (50:50 acetonitrile/water)

[4] = physchem; conditions: kinetic from dmso stock
Procedure: as §1, §2, §3, §4, §5, §6, §7, §8, §9, §10, §11, §12
Data Processing and Analysis
as §13, §14

[5] = pH 2.2, aqueous buffer, Solubility (pH 2.2)
[6] = pH 4.5, aqueous buffer, Solubility (pH 4.5)
[7] = pH 6.8, aqueous buffer, Solubility (pH 6.8)

| SMILES | EC50 [1] | Metabolic stability (Qh %), % hepatic blood flow [2] | Solubility (pH 2.2) [3] | Solubility (pH 4.5) [3] | Solubility (pH 6.8) [3] | solubility at 24 h [4, 5] | solubility at 24 h [4, 6] | solubility at 24 h [4, 7] |
| --- | --- | --- | --- | --- | --- | --- | --- | --- |
| COC[C@H]1N(c2cccc(-c3cccc(C)c3OCc3cc(C)c4c(c3)CCN(C3CCOC3)C4)n2)C[C@@H]2C[C@@]21C(=O)O (single isomer, unassigned) [Compound 52] | 12 nM | 38% | 110 μg/mL | 93 μg/mL | 76 μg/mL | – | – | – |
| Cc1cc(COc2c(C)cccc2-c2csc(N3CC[C@@]4(C(=O)O)C[C@H]4C3)n2)cc2c1CN(CC1COCCO1)CC2 (some centres unmarked) [Compound 93] | 2 nM | <24% | 140 μg/mL | 70 μg/mL | 51 μg/mL | – | – | – |
| CO[C@@H]1CN(c2cccc(-c3cc(C)ccc3OCc3cc(C)c4c(c3)CCN(C3CCOC3)C4)n2)CC[C@@H]1C(=O)O (some centres unmarked) [Compound 78] | 26 nM | <24% | 110 μg/mL | 91 μg/mL | 63 μg/mL | – | – | – |
| CO[C@H]1CN(c2nc(-c3cccc(C)c3OCc3cc(C)c4c(c3)CCN(CC3COCCO3)C4)cs2)CC[C@H]1C(=O)O (single isomer, unassigned) [Compound 169] | 29 nM | <24% | 130 μg/mL | 96 μg/mL | 90 μg/mL | – | – | – |
| CO[C@@H]1CN(c2nc(-c3cccc(C)c3OCc3cc(C)c4c(c3)CCN(CC3COCCO3)C4)cs2)CC[C@@H]1C(=O)O (some centres unmarked) [Compound 176] | 64 nM | <24% | 140 μg/mL | 95 μg/mL | 89 μg/mL | – | – | – |
| Cc1cc(COc2c(C)cccc2-c2cccc(N3C[C@@H]4C[C@]4(C(=O)O)C3)n2)cc2c1CN(C1CCOC1)CC2 (some centres unmarked) [Compound 26] | 9 nM | <24% | 110 μg/mL | 90 μg/mL | 67 μg/mL | – | – | – |
| COc1cc(COc2c(Cl)cccc2-c2csc(N3CC[C@H](C(=O)O)[C@H](OC)C3)n2)cc2c1CN(C1CCOCC1)CC2 [Compound 265] | 15 nM | <24% | – | – | – | 117 µg/mL (≈ 187 µM) | 53.7 µg/mL (≈ 85.5 µM) | 46.7 µg/mL (≈ 74.3 µM) |
| Cc1ccc(OCc2ccc3c(c2)CCN(C2COC2)CC3)c(-c2csc(N3C[C@@H]4C[C@]4(C(=O)O)C3)n2)c1 [Compound 148] | 67 nM | <24% | – | – | – | 93 µg/mL (≈ 175 µM) | 8.4 µg/mL (≈ 15.8 µM) | 1.1 µg/mL (≈ 2.07 µM) |
| Cc1cc(COc2c(C)cccc2-c2cccc(N3C[C@@H]4C[C@]4(C(=O)O)C3)n2)cc2c1CN(C1CCOC1)CC2 (some centres unmarked) [Compound 25] | 16 nM | <24% | 100 μg/mL | 89 μg/mL | 62 μg/mL | – | – | – |
| Cc1c(COc2ccccc2-c2cccc(N3CC[C@@]4(C(=O)O)C[C@H]4C3)n2)ccc2c1CCN(C1COC1)C2 [Compound 4] | 4 nM | <24% | – | – | – | 140 µg/mL (≈ 266 µM) | 120 µg/mL (≈ 228 µM) | 65 µg/mL (≈ 124 µM) |
| CO[C@@H]1CN(c2cccc(-c3cccc(C)c3OCc3ccc4c(c3C)CCN([C@@H]3CCOC3)CC4)n2)CC[C@@H]1C(=O)O [Compound 302] | 3 nM | <24% | – | – | – | 148 µg/mL (≈ 252 µM) | 112 µg/mL (≈ 190 µM) | 85.5 µg/mL (≈ 146 µM) |
| COc1cc(COc2c(C)cccc2-c2csc(N3CC[C@@H](C(=O)O)[C@@H](OC)C3)n2)cc2c1CN(C1COC1)CC2 [Compound 209] | 14 nM | <24% | – | – | – | 128 µg/mL (≈ 220 µM) | 83.9 µg/mL (≈ 145 µM) | 88.7 µg/mL (≈ 153 µM) |
| COCc1cc(COc2c(C)cccc2-c2cccc(N3CC[C@H](C(=O)O)[C@H](OC)C3)n2)cc2c1CN(C1COC1)CC2 [Compound 285] | 359 nM | <24% | – | – | – | 146 µg/mL (≈ 248 µM) | 111 µg/mL (≈ 188 µM) | 97.6 µg/mL (≈ 166 µM) |
| COC[C@H]1N(c2nc(-c3cc(C)ccc3OCc3ccc4c(c3)CCN(C3CCOCC3)C4)cs2)C[C@@H]2C[C@@]21C(=O)O [Compound 163] | 345 nM | <24% | – | – | – | 110 µg/mL (≈ 187 µM) | 77 µg/mL (≈ 131 µM) | 65 µg/mL (≈ 110 µM) |
| Cc1cccc(-c2csc(N3C[C@@H]4C[C@]4(C(=O)O)C3)n2)c1OCc1ccc2c(c1C)CCN(C1COC1)CC2 [Compound 143] | 9 nM | <24% | – | – | – | 110 µg/mL (≈ 202 µM) | 70 µg/mL (≈ 128 µM) | 56 µg/mL (≈ 103 µM) |
| CO[C@@H]1CN(c2cccc(-c3cccc(C)c3OCc3ccc4c(c3C)CCN(C3CCOCC3)C4)n2)CC[C@@H]1C(=O)O [Compound 68] | 14 nM | <24% | – | – | – | 140 µg/mL (≈ 239 µM) | 120 µg/mL (≈ 205 µM) | 93 µg/mL (≈ 159 µM) |
| Cc1ccc(OCc2cc(C)c3c(c2)CCN(C2COC2)C3)c(-c2cccc(N3C[C@@H]4C[C@]4(C(=O)O)C3)n2)c1 [Compound 38] | 354 nM | <24% | – | – | – | 100 µg/mL (≈ 190 µM) | 85 µg/mL (≈ 162 µM) | 59 µg/mL (≈ 112 µM) |
| Cc1cccc(-c2cccc(N3CC4OCC3C4C(=O)O)n2)c1OCc1ccc2c(c1C)CCN(C1CCOCC1)C2 (centres unmarked) [Compound 214] | 243 nM | <24% | – | – | – | 118 µg/mL (≈ 207 µM) | 108 µg/mL (≈ 189 µM) | 87.9 µg/mL (≈ 154 µM) |
| COC[C@H]1N(c2nc(-c3cccc(C)c3OCc3ccc4c(c3C)CCN(C3CCOCC3)C4)cs2)C[C@@H]2C[C@@]21C(=O)O [Compound 159] | 44 nM | 30% | – | – | – | 120 µg/mL (≈ 199 µM) | 95 µg/mL (≈ 157 µM) | 89 µg/mL (≈ 147 µM) |
| CO[C@@H]1CN(c2cccc(-c3cc(C)ccc3OCc3ccc4c(c3C)CCN(C3CCOCC3)CC4)n2)CC[C@@H]1C(=O)O [Compound 81] | 30 nM | 30% | – | – | – | > 160 µg/mL | > 160 µg/mL | 91 µg/mL (≈ 152 µM) |
| Cc1ccc(OCc2ccc3c(c2C)CCN(C2CCOCC2)C3)c(-c2csc(N3C[C@@H]4C[C@]4(C(=O)O)[C@H]3C)n2)c1 [Compound 154] | 4 nM | <24% | – | – | – | 110 µg/mL (≈ 192 µM) | 65 µg/mL (≈ 113 µM) | 25 µg/mL (≈ 43.6 µM) |
| CO[C@@H]1CN(c2cccc(-c3cccc(C)c3OCc3ccc4c(c3C)CCN(C3COC3)C4)n2)CC[C@@H]1C(=O)O [Compound 69] | 16 nM | <24% | – | – | – | 130 µg/mL (≈ 233 µM) | 110 µg/mL (≈ 197 µM) | 89 µg/mL (≈ 160 µM) |
| Cc1ccc(OCc2cc(C)c3c(c2)CCN(C2COC2)C3)c(-c2csc(N3CC[C@@]4(C(=O)O)C[C@H]4C3)n2)c1 [Compound 124] | 14 nM | 31% | – | – | – | 120 µg/mL (≈ 220 µM) | 3.7 µg/mL (≈ 6.78 µM) | 4.9 µg/mL (≈ 8.98 µM) |
| Cc1c(COc2ccccc2-c2cccc(N3CC[C@@]4(C(=O)O)C[C@H]4C3)n2)ccc2c1CCN(C[C@@H]1COCCO1)C2 [Compound 10] | 9 nM | 32% | – | – | – | 130 µg/mL (≈ 228 µM) | 110 µg/mL (≈ 193 µM) | 55 µg/mL (≈ 96.5 µM) |
| Cc1cccc(-c2csc(N3C[C@H]4C[C@@]4(C(=O)O)[C@@H]3C)n2)c1OCc1ccc2c(c1C)CCN(C1CCOCC1)C2 [Compound 155] | 46 nM | <24% | – | – | – | 96 µg/mL (≈ 167 µM) | 69 µg/mL (≈ 120 µM) | 61 µg/mL (≈ 106 µM) |
